In one experiment the test system is SP 4012. In words: organism not typed. The following applies: SP 4012 (S. pseudointermedius). Here is the method: (§1) All the strains (see below) used in minimal inhibitory concentration (MIC) assays (Ovchinnikov et al., 2017, Front Microbiol., 8, p774, doi:10.3389/fmicb.2017.00774) were grown in BHI medium (Oxoid) at 30° C. without shaking. The tested strains were obtained from the LMG collection. […] NisinZ and micrococcin P1 were purified from source. Synthesized peptides were solubilized to concentrations of 10.0-0.1 mg/ml in 0.1% (vol/vol) trifluoroacetic acid and stored at −20° C. until use. Garvicin KS is made up of 3 peptides:
(§2) Bacteriocin activity was determined using a microtitre plate assay. The plates were incubated at 30° C. for 8 h and the growth was measured spectrophotometrically at 600 nm (A600) with 15 min intervals using SPECTROstarNano (BMG LABTECH, Germany). The MIC was defined as the bacteriocin concentration that inhibited the growth of the indicator strain by at least 50% in 200 μl culture (i.e., 50% of the turbidity of the control culture without bacteriocin).

In another experiment the test system is SP 4013. In words: organism not typed. The following applies: SP 4013 (S. pseudointermedius). As to the method:
as §1, §2

The test system of the next experiment is SP 4014. In words: organism not typed. The following applies: SP 4014 (S. pseudointermedius). As to the method: as §1, §2
The next experiment concerns E. faecalis (2). The settings on record: E. faecalis (2), Table 6B. As to the method:
as §1, §2

The test system of the next experiment is E. faecium (2). The following applies: E. faecium (2), Table 6B. As to the method: as §1, §2
For another experiment, the system named is E. hirae (4). The settings on record: E. hirae (4), Table 6B. As to the method:
as §1, §2

A further experiment relates to Listeria spp. (3). The settings on record: Listeria spp. (3), Table 6B. As to the method:
as §1, §2

A further experiment deals with S. pseudointermedius (3). The settings on record: S. pseudointermedius (3), Table 6B. Here is the method: as §1, §2
Experiment [1] relates to E. faecalis LMGT3358 resistant mutants. The gist of the method:
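Growth inhibition of indicator bacteria, cultivated statically in BHI medium at 30° C, was measured in microtiter plates. Turbidity reduced to 50% of the bacteriocin-free control defined the MIC.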

For experiment [2], the system named is E. faecium and E. faecalis. The following applies: 20 μl of 1 mg/ml bacteriocin on soft agar, overnight, 30° C. vs 45° C.
In a further experiment the test system is S. aureus (5). The following applies: Table 6B. Here is the method: as §1, §2

Experimental findings from patent publication US11648289B2, “Antibacterial method” (priority 2016, dated 2023) are described below.

No end group written: not given here.

As usually defined, the MIC is the lowest concentration found to suppress growth. “MLAKIKAMIKKFPNPYTLAAKLTTYEINWYKQQYGRYPWERPVA [EntEJ97]”: the MIC with SP 4012 is 12.5 µg/mL; in the experiment with SP 4013, 12.5 µg/mL; against SP 4014 it was 12.5 µg/mL; in the experiment with E. faecalis (2), 3.1 µg/mL; in the experiment on E. faecium (2), 0.8 to 1.6 µg/mL; in the experiment on E. hirae (4), 0.4 to 1.6 µg/mL. The MIC is 12.5 to 25 µg/mL in the experiment on Listeria spp. (3) and 12.5 µg/mL with S. pseudointermedius (3). Further, the “resistance of lower resistance (LR) colonies compared to the WT” value in experiment [1] (five LR colonies of E. faecalis) was 16-32 times. For the same sequence, the “resistance of highly resistant (HR) colonies compared to the WT” value in [1] (seven HR colonies of E. faecalis) is “at least 500 times”. Moreover, in experiment [2], the “appearance of resistant mutants at growth temperature” value was “only appeared at 30 °C but not at 45 °C”.

Consider “MKFKFNPTGTIVKKLTQYEIAWFKNKHGYYPWEIPRC [EntK1]”, for which the MIC against E. faecalis (2) is over 25 µg/mL; in the experiment on E. faecium (2), under 0.02 to 0.4 µg/mL; against E. hirae (4) it was 0.2 to 0.8 µg/mL; in the experiment on Listeria spp. (3) it was over 50 µg/mL; in the experiment with S. aureus (5), over 25 µg/mL. In addition, the “appearance of resistant mutants at growth temperature” value in [2] was “only appeared at 30 °C but not at 45 °C”.
